Patent publication US12187709B2 (Genentech, Inc., priority 2021, dated 2025)

Experiments:
[1] = target: Human Cbl-b (residues 40-426) (Homo sapiens (Human), UniProt Q13191); assay: Cbl-b SPR assay; type: binding; conditions: for Fold of selectivity: C-cbl SPR Kd vs Cbl-b SPR Kd; for Kd: SPR, 20° C.
How it was run: (§1)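 Binding is measured by surface plasmon resonance against both isoforms, with double referencing and 1:1 kinetic fitting. Dissociation time is tuned to 4-5 half-lives.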

[2] = target: Cbl-b (Homo sapiens (Human), UniProt Q13191); assay: Cbl-b LCK Ub TR-FRET assay (Cbl-b Lck HTRF); type: biochemical; conditions: for IC50: Cbl-b LCK Ub TR-FRET; for fold-selectivity (Cbl-b over C-cbl): ratio C-cbl Lck HTRF IC50 / Cbl-b Lck HTRF IC50
Cbl-b, sequence (Q13191 40-426): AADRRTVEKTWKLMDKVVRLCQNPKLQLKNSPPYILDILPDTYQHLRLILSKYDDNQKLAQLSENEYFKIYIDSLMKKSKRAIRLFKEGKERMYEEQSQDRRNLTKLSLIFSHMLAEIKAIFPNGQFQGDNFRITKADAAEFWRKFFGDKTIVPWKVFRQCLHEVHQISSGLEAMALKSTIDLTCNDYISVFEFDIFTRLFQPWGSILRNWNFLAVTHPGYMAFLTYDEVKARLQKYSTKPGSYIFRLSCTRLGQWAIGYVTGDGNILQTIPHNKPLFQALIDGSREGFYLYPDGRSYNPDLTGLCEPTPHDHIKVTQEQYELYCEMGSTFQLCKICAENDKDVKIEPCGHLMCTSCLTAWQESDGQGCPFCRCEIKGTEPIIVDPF
How it was run: (§2)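 Signal is read once the detection mix has stood 20 min at ambient temperature. Curves are anchored by DMSO as maximum and by omission of LCK as minimum.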

[3] = target: c-Cbl (residues 47-435) (Homo sapiens (Human), UniProt P22681); assay: c-Cbl SPR assay; type: binding; conditions: 20° C.
c-Cbl (residues 47-435), sequence (P22681 47-435): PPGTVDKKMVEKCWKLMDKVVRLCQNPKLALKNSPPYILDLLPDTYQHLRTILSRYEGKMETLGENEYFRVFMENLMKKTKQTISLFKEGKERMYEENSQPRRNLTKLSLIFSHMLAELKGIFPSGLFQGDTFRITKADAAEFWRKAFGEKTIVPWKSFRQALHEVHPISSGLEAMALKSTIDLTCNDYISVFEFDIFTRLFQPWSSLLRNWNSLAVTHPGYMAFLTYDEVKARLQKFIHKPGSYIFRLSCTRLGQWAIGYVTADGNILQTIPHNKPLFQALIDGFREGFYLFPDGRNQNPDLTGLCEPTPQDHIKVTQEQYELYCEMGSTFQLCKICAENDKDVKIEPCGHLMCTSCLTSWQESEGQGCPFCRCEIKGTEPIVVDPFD
How it was run: as §1

[4] = target: c-Cbl (Homo sapiens (Human), UniProt P22681); assay: C-Cbl LCK Ub TR-FRET assay (C-cbl Lck HTRF); type: biochemical
c-Cbl, sequence (P22681 47-435): as above
How it was run: as §2

Human Cbl-b (residues 40-426), sequence (Q13191 40-426): as the sequence (Q13191 40-426) above

SMILES | Fold of selectivity [1] [×] | Kd [1] [nM] | IC50 [2] [nM] | fold-selectivity (Cbl-b over C-cbl) [2] [x] | Kd [3] [nM] | IC50 [4] [nM]
CC(C)[C@](O)(c1cccc(N2Cc3c(cc(CNC4(C)CCC4)cc3C(F)(F)F)C2=O)c1)c1nncn1C [Compound 310, (S)-2-(3-(1-hydroxy-2-methyl-1-(4-methyl-4H-1,2,4-triazol-3-yl)propyl)phenyl)-6-(((1-methylcyclobutyl)amino)methyl)-4-(trifluoromethyl)isoindolin-1-one] | 3.7 | 30 | 24 | 4.7 | 110 | 110
CC[C@@H](NC1(C)CCC1)c1cc2c(c(C(F)(F)F)c1)CN(c1cccc([C@H](c3nncn3C)C3COC3)c1)C2=O [Compound 314, 2-(3-((R)-(4-methyl-4H-1,2,4-triazol-3-yl)(oxetan-3-yl)methyl)phenyl)-6-((R)-1-((1-methylcyclobutyl)amino)propyl)-4-(trifluoromethyl)isoindolin-1-one] | 5.5 | 5.1 | 11 | 4.5 | 28 | 51
Cn1cnnc1[C@@H](c1cccc(N2Cc3c(Cl)cc(CNC4(C)CCC4)cc3C2=O)c1)[C@H]1C[C@@H](F)C1 [Compound 317, 4-chloro-2-(3-((R)-((1s,3S)-3-fluorocylcobutyl)(4-methyl-4H-1,2,4-triazol-3-yl)methyl)phenyl)-6-(((1-methylcyclobutyl)amino)methyl)isoindolin-1-one] | 15 | 100 | 170 | 6.5 | 1500 | 1100
CS[C@H]1C[C@](c2cccc(N3Cc4c(cc(CNC5(C)CCC5)cc4C(F)(F)F)C3=O)c2)(c2nncn2C)C1 [Compound 323, 2-(3-((1r,3r)-1-(4-methyl-4H-1,2,4-triazol-3-yl)-3-(methylthio)cyclobutyl)phenyl)-6-(((1-methylcyclobutyl)amino)methyl)-4-(trifluoromethyl)isoindolin-1-one] | 12 | 0.47 | 5 | 1.4 | 5.2 | 7.1
CS[C@H]1C[C@@](c2cccc(N3Cc4c(cc(CNC5(C)CCC5)cc4C(F)(F)F)C3=O)c2)(c2nncn2C)C1 [Compound 324, 2-(3-((1s,3s)-1-(4-methyl-4H-1,2,4-triazol-3-yl)-3-(methylthio)cyclobutyl)phenyl)-6-(((1-methylcyclobutyl)amino)methyl)-4-(trifluoromethyl)isoindolin-1-one] | 10 | 0.57 | 4.8 | 1.5 | 5.7 | 7.1
Cn1cnnc1C1(c2cccc(N3Cc4c(cc(CNC5(C)CCC5)cc4C(F)(F)F)C3=O)c2)CS(=O)(=O)C1 [Compound 328, 2-(3-(3-(4-methyl-4H-1,2,4-triazol-3-yl)-1,1-dioxidothietan-3-yl)phenyl)-6-(((1-methylcyclobutyl)amino)methyl)-4-(trifluoromethyl)isoindolin-1-one] | 4.8 | 67 | 100 | 3.8 | 320 | 380
Cn1cnnc1C1(c2cccc(N3Cc4c(cc(CNC5(C)CCC5)cc4C(F)(F)F)C3=O)c2)CSC1.O=CO [Compound 329, 2-(3-(3-(4-methyl-4H-1,2,4-triazol-3-yl)thietan-3-yl)phenyl)-6-(((1-methylcyclobutyl)amino)methyl)-4-(trifluoromethyl)isoindolin-1-one formate] | 5.7 | 3.2 | 11 | 1.8 | 19 | 19
Cn1cnnc1[C@]1(c2cccc(N3Cc4c(cc(CNC5(C)CCC5)cc4C(F)(F)F)C3=O)c2)C[S@+]([O-])C1 [Compound 330, 2-(3-((1s,3s)-3-(4-methyl-4H-1,2,4-triazol-3-yl)-1-oxidothietan-3-yl)phenyl)-6-(((1-methylcyclobutyl)amino)methyl)-4-(trifluoromethyl)isoindolin-1-one] | 11 | 110 | 200 | 1.9 | 1200 | 390
CCNc1cc([C@]2(c3nncn3C)C[C@H](C)C2)cc(N2Cc3c(cc(CNC4(C)CCC4)cc3C(F)(F)F)C2=O)c1F [Compound 336, 2-(3-(ethylamino)-2-fluoro-5-((1r,3r)-3-methyl-1-(4-methyl-4H-1,2,4-triazol-3-yl)cyclobutyl)phenyl)-6-(((1-methylcyclobutyl)amino)methyl)-4-(trifluoromethyl)isoindolin-1-one] | 4.1 | 3.2 | 7.4 | 1.2 | 13 | 9.1
CCNc1cc([C@]2(c3nncn3C)C[C@@H](C)C2)cc(N2Cc3c(cc(CNC4(C)CCC4)cc3C(F)(F)F)C2=O)c1F [Compound 337, 2-(3-(ethylamino)-2-fluoro-5-((1s,3s)-3-methyl-1-(4-methyl-4H-1,2,4-triazol-3-yl)cyclobutyl)phenyl)-6-(((1-methylcyclobutyl)amino)methyl)-4-(trifluoromethyl)isoindolin-1-one] | 3.4 | 1.9 | 6.2 | 1.2 | 6.5 | 7.8

More lines, in order of falling Kd [1], values ahead:

Fold of selectivity [1] [×] | Kd [1] [nM] | IC50 [2] [nM] | fold-selectivity (Cbl-b over C-cbl) [2] [x] | Kd [3] [nM] | IC50 [4] [nM] | SMILES
5.9 | 480 | 660 | 2.3 | 2600 | 1500 | Cn1cnnc1C1(c2cccc(N3Cc4c(cc(CNC5(C)CCC5)cc4C(F)(F)F)C3=O)c2)CCCCC1 [Compound 298, 2-(3-(1-(4-methyl-4H-1,2,4-triazol-3-yl)cyclohexyl)phenyl)-6-(((1-methylcyclobutyl)amino)methyl)-4-(trifluoromethyl)isoindolin-1-one]
4.7 | 210 | 190 | 2.9 | 980 | 550 | Cn1cnnc1C1(c2cccc(N3Cc4c(cc(C(N)=O)cc4C(F)(F)F)C3=O)c2)CCC1 [Compound 327, 2-(3-(1-(4-methyl-4H-1,2,4-triazol-3-yl)cyclobutyl)phenyl)-3-oxo-7-(trifluoromethyl)isoindoline-5-carboxamide]
2.0 | 140 | 140 | 1.6 | 280 | 230 | Cn1cnnc1[C@@](C)(O)c1cccc(N2Cc3c(cc(CNC4(C)CCC4)cc3C(F)(F)F)C2=O)c1 [Compound 306, (S)-2-(3-(1-hydroxy-1-(4-methyl-4H-1,2,4-triazol-3-yl)ethyl)phenyl)-6-(((1-methylcyclobutyl)amino)methyl)-4-(trifluoromethyl)isoindolin-1-one]
8 | 15 | 29 | 3.8 | 120 | 110 | Cn1cnnc1C1(c2cccc(N3Cc4c(cc(CNC5(C)CCC5)cc4C(F)(F)F)C3=O)c2)C[S+]([O-])C1 (stereo not drawn) [Compound 331, 2-(3-((1r,3r)-3-(4-methyl-4H-1,2,4-triazol-3-yl)-1-oxidothietan-3-yl)phenyl)-6-(((1-methylcyclobutyl)amino)methyl)-4-(trifluoromethyl)isoindolin-1-one]
17 | 2.6 | 8.8 | 3.0 | 45 | 26 | Cn1cnnc1[C@]1(c2cccc(N3Cc4c(cc(CNC5(C)CCC5)cc4C(F)(F)F)C3=O)c2)C[C@H](OC(F)F)C1 [Compound 335, 2-(3-((1s,3s)-3-(difluoromethoxy)-1-(4-methyl-4H-1,2,4-triazol-3-yl)cyclobutyl)phenyl)-6-(((1-methylcyclobutyl)amino)methyl)-4-(trifluoromethyl)isoindolin-1-one]
26 | 0.85 | 5.9 | 2.5 | 22 | 14 | Cn1cnnc1[C@]1(c2cccc(N3Cc4c(cc(CNC5(C)CCC5)cc4C(F)(F)F)C3=O)c2)C[C@@H](OC(F)F)C1 [Compound 334, 2-(3-((1r,3r)-3-(difluoromethoxy)-1-(4-methyl-4H-1,2,4-triazol-3-yl)cyclobutyl)phenyl)-6-(((1-methylcyclobutyl)amino)methyl)-4-(trifluoromethyl)isoindolin-1-one]
4.0 | 0.2 | 6.4 | 0.68 | 0.8 | 4.4 | CC[C@H](NC1(C)CCC1)c1cc2c(c(C(F)(F)F)c1)CN(c1cccc([C@H](c3nncn3C)C3COC3)c1)C2=O [Compound 313, 2-(3-((R)-(4-methyl-4H-1,2,4-triazol-3-yl)(oxetan-3-yl)methyl)phenyl)-6-((S)-1-((1-methylcyclobutyl)amino)propyl)-4-(trifluoromethyl)isoindolin-1-one]
